Assay results taken from patent publication US20040081972A1, “Novel physiologically active peptide and use thereof” (priority 2000, published 2004).
[ ]: non-standard residue; d: D form. LYB = not defined here

Assays:
Type in all cases: cell-based
[1] = tested on: spleen of an apoaequorin transgenic mouse; test: Intracellular calcium (aequorin luminescence) in spleen pieces of apoaequorin transgenic mouse
[2] = tested on: spleen of an apoaequorin transgenic mouse; test: as above; details: for physiological activity (the activity found in Peptide 1 or Peptide 3): purified samples, method of Example 3
Protocol: (§1) In order to evaluate physiological activities of the peptides prepared in Example 1, the prepared peptides were allowed to act upon organs excised from the living body, and changes in the concentration of an intracellular signal transduction substance in cells constituting the organs were measured.
(§2) In order to measure changes in the concentration of an intracellular signal transduction substance in cells constituting the organs, a transgenic mouse prepared by integrated an apoaequorin gene expression vector into a chromosome was used. Specifically, a female mouse derived from the transgenic mouse disclosed in Reference Example 4 as an individual number 98075-04-6 was used in the test. The transgenic mouse was prepared and reared as an SPF animal in a clean room, and was not contaminated with pathogens including mouse hepatitis virus, Sendai virus, mycoplasma and Tyzzer bacterium.
(§3) Aequorin is a bioluminescent protein complex which is present in the umbrella region of luminescent Aequorea victoria. Aequorin is constituted from its protein moiety apoaequorin, its luminescence substrate coelent razin and molecular oxygen, and emits light by its binding with calcium ion. Since expression of the apoaequorin protein has been confirmed in at least thymus, spleen, abdominal muscle, diaphragm, kidney, crystalline lens, pancreas, fat tissue, liver, skull, blood vessel, ovary, womb and adrenal gland of the transgenic mouse used in the test, it was able to monitor changes in the intracellular calcium ion concentration in these organs with a high sensitivity.
(§4) Organs were prepared from offsprings borne from the female of individual number 98075-04-6 to examine the activities of the peptides produced in Example 1. After the offsprings were killed, the thymus, spleen, abdominal muscle, diaphragm, kidney, crystalline lens, pancreas, fat tissue, liver, skull, blood vessel, ovary, womb and adrenal gland were excised. Each of the excised organs was cut into small cubes of about 1 to 2 mm square in PBS containing 10 units/ml of heparin sodium and thoroughly washed by changing the solution. Next, three pieces of each of the organ samples thus prepared were put into a 5 ml capacity tube (Rohren-Tubes; No. 55.476, manufactured by Sarstedt) which had been charged with RPMI 1640 medium containing 200 μl of 10 μmol/l coelenterazine (manufactured by Molecular Probes), and cultured at 37° C. for 5 hours. Five hours after, various substances shown below dissolved in RPMI 1640 medium were added at 200 μl, and the luminescence was measured just after the addition at 1 second intervals using a luminometer AutoLumat LB953 (manufactured by BERTHOLD).
Organs were prepared from offsprings borne from the female of individual number 98075-04-6 to examine the activities of the peptides produced in Example 1. After the offsprings were killed, the spleen was excised. The excised spleen was cut into small cubes of about 1 to 2 mm square in PBS containing 10 units/ml of heparin sodium and thoroughly washed by changing the solution. Next, three pieces of the prepared spleen sample were put into a 5 ml capacity tube (Rohren-Tubes; No. 55.476, manufactured by Sarstedt) which had been charged with RPMI 1640 medium containing 200 μl of 10 μmol/l coelenterazine (manufactured by Molecular Probes), and cultured at 37° C. for 5 hours. Five hours after, various substances shown below dissolved in RPMI 1640 medium were added at 200 μl, and the luminescence was measured just after the addition at 1 second intervals using a luminometer AutoLumat LB953 (manufactured by BERTHOLD).
RPMI 1640, a peptide prepared in Example 1 (final concentration: 10 nmol/l), a peptide prepared in Example 1 (final concentration: 100 nmol/l), a peptide prepared in Example 1 (final concentration: 1 μmol/l), a peptide prepared in Example 1 (final concentration; 10 μmol/l), ATP (final concentration: 100 μmol/l), A23187 (final concentration: 1 μmol/l) and Triton X-100 (final concentration: 2%) were added in order. […]

[3] = tested on: skull (cranial bone) of an apoaequorin transgenic mouse; test: Intracellular calcium (aequorin luminescence) in skull (cranial bone) pieces of apoaequorin transgenic mouse; details: final concentration 10 μmol/l
Protocol: as §1, §2, §3, §4

[4] = tested on: thymus, abdominal muscle, diaphragm, kidney, crystalline lens, pancreas, fat tissue, liver, blood vessel, ovary, womb and adrenal gland; test: Intracellular calcium (aequorin luminescence) in organs other than the spleen and skull of apoaequorin transgenic mouse
Protocol: In order to measure changes in the concentration of an intracellular signal transduction substance in cells constituting the organs, a transgenic mouse prepared by integrated an apoaequorin gene expression vector into a chromosome was used. […] The transgenic mouse was prepared and reared as an SPF animal in a clean room, and was not contaminated with pathogens including mouse hepatitis virus, Sendai virus, mycoplasma and Tyzzer bacterium.

[5] = tested on: blood vessel of an apoaequorin transgenic mouse; test: Intracellular calcium (aequorin luminescence) in blood vessel pieces of apoaequorin transgenic mouse
Protocol: as §1, §2, §3, §4

[6] = tested on: thymus of an apoaequorin transgenic mouse; test: Intracellular calcium (aequorin luminescence) in thymus pieces of apoaequorin transgenic mouse
Protocol: as §1
as §2, with “The transgenic mouse was prepared and reared as an SPF animal in a clean room, and was not contaminated with pathogens including mouse hepatitis virus, Sendai virus, mycoplasma and Tyzzer bacterium.” left out
Aequorin is a bioluminescent protein complex which is present in the umbrella region of luminescent Aequorea victoria. Aequorin is constituted from its protein moiety apoaequorin, its luminescence substrate coelent razin and molecular oxygen, and emits light by its binding with calcium ion. […]
Organs were prepared from offsprings borne from the female of individual number 98075-04-6 to examine the activities of the peptides produced in Example 1. […] Five hours after, various substances shown below dissolved in RPMI 1640 medium were added at 200 μl, and the luminescence was measured just after the addition at 1 second intervals using a luminometer AutoLumat LB953 (manufactured by BERTHOLD).

[7] = 10 nmol/l, 100 nmol/l, 1 μmol/l, 10 μmol/l added in order

Molecule: H-Met-Met-Glu-Lys-Leu-Gly-Val-Pro-Lys-Thr-His-Leu-Glu-Met-Lys-Lys-Met-Ile-Ser-Glu-Val-Thr-Gly-Gly-Val-Ser-Asp-Thr-Ile-Ser-Tyr-Arg-Asp-Phe-Val-Asn-Met-Met-Leu-NH2 (H-MMEKLGVPKTHLEMKKMISEVTGGVSDTISYRDFVNMML-NH2) [Peptide 3]
- luminescence (intracellular calcium increase) ([1]; final concentration 8 μmol/l): Strong luminescence
- final concentration from which concentration-dependent luminescence was observed [2, 7]: 1 µmol/L
- luminescence (intracellular calcium increase) ([2]; final concentration 10 μmol/l): Strong luminescence
- luminescence (intracellular calcium increase) [3]: Strong luminescence

Molecule: H-Leu-Ile-Arg-Glu-Val-Ser-Ser-Gly-Ser-Glu-Glu-Thr-Phe-Ser-Tyr-Ser-Asp-Phe-Leu-Arg-Met-Met-Leu-NH2 (H-LIREVSSGSEETFSYSDFLRMML-NH2) [Peptide 2 short]
- final concentration from which concentration-dependent luminescence was observed [2, 7]: 1 µmol/L
- activity maintained relative to the activity of Peptide 2 ([2]; fraction of Peptide 2 activity): 1/10

Molecule: H-Met-Leu-Glu-Lys-Leu-Gly-Val-Pro-Lys-Thr-His-Leu-Glu-Leu-Lys-Lys-Leu-Ile-Gly-Glu-Val-Ser-Ser-Gly-Ser-Gly-Glu-Thr-Phe-Ser-Tyr-Pro-Asp-Phe-Leu-Arg-Met-Met-Leu-NH2 (H-MLEKLGVPKTHLELKKLIGEVSSGSGETFSYPDFLRMML-NH2) [Peptide 1]
- luminescence (intracellular calcium increase) ([1]; final concentration 6 μmol/l): Strong luminescence
- concentration at which luminescence accompanied by the increased intracellular calcium was observed [2, 7]: 10 µmol/L
- luminescence (intracellular calcium increase) ([2]; final concentration 10 μmol/l): Strong luminescence
- luminescence (intracellular calcium increase) [3]: Strong luminescence

Molecule: CNc1ccc2oc(C[C@H]3O[C@@]4(CC[C@H]3C)O[C@H]([C@H](C)C(=O)c3ccc[nH]3)[C@H](C)C[C@H]4C)nc2c1C(=O)O [Peptide A23187, A23187]
- luminescence (intracellular calcium increase) ([4]; final concentration 1 μmol/l): luminescence was observed

Molecule: Triton X-100
- luminescence ([4]; final concentration 2%): luminescence was observed

Molecule: CNC[C@H](O)c1cccc(O)c1 [phenylephrine]
- luminescence (intracellular calcium increase) ([5]; final concentration 20 μmol/l): Strong luminescence
- luminescence (intracellular calcium increase) ([6]; final concentration 20 μmol/l): Strong luminescence

Molecule: Nc1ncnc2c1ncn2[C@@H]1O[C@H](COP(=O)(O)OP(=O)(O)OP(=O)(O)O)[C@@H](O)[C@H]1O [ATP]
- luminescence (intracellular calcium increase) ([4]; final concentration 100 μmol/l): luminescence was observed
- luminescence (intracellular calcium increase) ([2]; final concentration 100 μmol/l): Strong luminescence
- luminescence (intracellular calcium increase) ([5]; final concentration 100 μmol/l): Strong luminescence
- luminescence (intracellular calcium increase) ([6]; final concentration 100 μmol/l): Strong luminescence

Molecule: C[N+](C)(C)CCOC(N)=O [carbachol]
- luminescence (intracellular calcium increase) ([5]; final concentration 10 μmol/l): Strong luminescenc

Molecule: H-Leu-Ser-Pro-His-Thr-Lys-Leu-Ser-Tyr-Gly-Glu-Gly-Val-Phe-Leu-Arg-Leu-Ser-Lys-Ser-Glu-Gly-Leu-Met-Glu-Ile-Lys-Leu-Met-Glu-Asp-Leu-Met-Val-Phe-Pro-Lys-Thr-Gly-NH2 (H-LSPHTKLSYGEGVFLRLSKSEGLMEIKLMEDLMVFPKTG-NH2) [Peptide 1S]
- luminescence (intracellular calcium increase) ([2]; final concentration 10 μmol/l): not detected
- luminescence (intracellular calcium increase) [3]: not detected

Molecule: H-Val-Thr-Pro-His-Thr-Lys-Leu-Val-Tyr-Ser-Glu-Ser-Val-Ile-Met-Asn-Met-Ser-Lys-Gly-Glu-Gly-Leu-Met-Glu-Ile-Lys-Leu-Met-Asp-Asp-Met-Met-Thr-Phe-Arg-Lys-val-Gly-NH2 (H-VTPHTKLVYSESVIMNMSKGEGLMEIKLMDDMMTFRK[dV]G-NH2; SMILES CC[C@H](C)[C@H](NC(=O)[C@H](CCC(=O)O)NC(=O)[C@H](CCSC)NC(=O)[C@H](CC(C)C)NC(=O)CNC(=O)[C@H](CCC(=O)O)NC(=O)CNC(=O)[C@H](CCCCN)NC(=O)[C@H](CO)NC(=O)[C@H](CCSC)NC(=O)[C@H](CC(N)=O)NC(=O)[C@H](CCSC)NC(=O)[C@@H](NC(=O)[C@@H](NC(=O)[C@H](CO)NC(=O)[C@H](CCC(=O)O)NC(=O)[C@H](CO)NC(=O)[C@H](Cc1ccc(O)cc1)NC(=O)[C@@H](NC(=O)[C@H](CC(C)C)NC(=O)[C@H](CCCCN)NC(=O)[C@@H](NC(=O)[C@H](Cc1c[nH]cn1)NC(=O)[C@@H]1CCCN1C(=O)[C@@H](NC(=O)[C@@H](N)C(C)C)[C@@H](C)O)[C@@H](C)O)C(C)C)C(C)C)[C@@H](C)CC)C(=O)N[C@@H](CCCCN)C(=O)N[C@@H](CC(C)C)C(=O)N[C@@H](CCSC)C(=O)N[C@@H](CC(=O)O)C(=O)N[C@@H](CC(=O)O)C(=O)N[C@@H](CCSC)C(=O)N[C@@H](CCSC)C(=O)N[C@H](C(=O)N[C@@H](Cc1ccccc1)C(=O)N[C@@H](CCCNC(=N)N)C(=O)N[C@@H](CCCCN)C(=O)N[C@@H](C(=O)NCC(N)=O)C(C)C)[C@@H](C)O) [Peptide 3S]
- luminescence (intracellular calcium increase) ([2]; final concentration 10 μmol/l): not detected
- luminescence (intracellular calcium increase) [3]: not detected

Molecule: CC[C@H](C)[C@H](NC(=O)[C@H](CC(=O)O)NC(=O)[C@H](CC(C)C)NC(=O)[C@H](Cc1c[nH]cn1)NC(=O)[C@@H]1CSSC[C@H](N)C(=O)N[C@@H](CO)C(=O)N[C@H]2CSSC[C@H](NC(=O)[C@H](CCC(=O)O)NC(=O)[C@H](CCCCN)NC(=O)[C@H](CC(=O)O)NC(=O)[C@H](CCSC)NC(=O)[C@H](CC(C)C)NC(=O)[C@H](CO)NC(=O)[C@H](CO)NC2=O)C(=O)N[C@@H](C(C)C)C(=O)N[C@@H](Cc2ccc(O)cc2)C(=O)N[C@@H](Cc2ccccc2)C(=O)N1)C(=O)N[C@H](C(=O)N[C@@H](Cc1c[nH]c2ccccc12)C(=O)O)[C@@H](C)CC [endothelin]
- luminescence (intracellular calcium increase) ([5]; final concentration 10 nmol/l): Strong luminescence

Molecule: H-Leu-Ser-Pro-His-Thr-Lys-Leu-Ser-Tyr-Arg-Glu-Glu-Val-Phe-Leu-Arg-Leu-Ser-Lys-Ser-Glu-Gly-Leu-Met-Glu-Ile-LYB-Leu-Met-Glu-Asp-Leu-Met-val-Phe-Ser-Arg-Thr-Gly-NH2 (H-LSPHTKLSYREEVFLRLSKSEGLMEI[LYB]LMEDLM[dV]FSRTG-NH2; reading uncertain) [Peptide 2S]
- luminescence (intracellular calcium increase) ([2]; final concentration 10 μmol/l): not detected
- luminescence (intracellular calcium increase) [3]: not detected

Molecule: H-Met-Leu-Glu-Lys-Leu-Gly-Val-Pro-Lys-Thr-His-Leu-Glu-Leu-Lys-Arg-Leu-Ile-Arg-Glu-Val-Ser-Ser-Gly-Ser-Glu-Glu-Thr-Phe-Ser-Tyr-Ser-Asp-Phe-Leu-Arg-Met-Met-Leu-NH2 (H-MLEKLGVPKTHLELKRLIREVSSGSEETFSYSDFLRMML-NH2) [Peptide 2]
- final concentration from which concentration-dependent luminescence was observed [2, 7]: 0.1 µmol/L
- luminescence (intracellular calcium increase) ([2]; final concentration 10 μmol/l): Strong luminescence
- luminescence (intracellular calcium increase) [3]: Strong luminescence

B1: AIF-1: precursor protein comprising the amino acid sequence represented by SEQ ID NO:1; purified after FXa cleavage of MBP fusion (protein, listed as Homo sapiens)
chain: MSQTRDLQGGKAFGLLKAQQEERLDEINKQFLDDPKYSSDEDLPSKLEGFKEKYMEFDLNGNGDIDIMSLKRMLEKLGVPKTHLELKKLIGEVSSGSGETFSYPDFLRMMLGKRSAILKMILMYEEKAREKEKPTGPPAKKAISELP
- physiological activity (the activity found in Peptide 1 or Peptide 3) [2]: not observed

B2: AIF-2: precursor protein comprising the amino acid sequence represented by SEQ ID NO:5; purified after FXa cleavage of MBP fusion (protein, listed as Homo sapiens)
chain: MSGELSNRFQGGKAFGLLKARQERRLAEINRELLCDQKYSDEENLPEKLTAFKEKYMEFDLNNEGEIDLMSLKRMMEKLGVPKTHLEMKKMISEVTGGVSDTISYRDFVNMMLGKRSAVLKLVMMFEGKANESSPKPVGPPPERDIASLP
- physiological activity (the activity found in Peptide 1 or Peptide 3) [2]: not observed
